Test results published in patent US10633379B2, “Bromodomain inhibitors” (AbbVie Inc., priority 2016, dated 2020).

Assays:
[1] = target: BRD4 (BDII_E352-M457) (Homo sapiens (Human), UniProt O60885); experiment: TR-FRET bromodomain binding assay, BRD4 BDII; details: mean Ki, calculated from IC50, probe Kd and probe concentration
Method: (§1) A time-resolved fluorescence resonance energy transfer (TR-FRET) assay was used to determine the affinities of compounds of the Examples listed in Table 1 for each bromodomain of BRD4. His-tagged first (BDI: amino acids K57-E168) and second (BDII: amino acids E352-M457) bromodomains of BRD4 were expressed and purified. An Alexa647-labeled BET-inhibitor was used as the fluorescent probe in the assay.
(§2) Compound dilution series were prepared in DMSO via an approximately 3-fold serial dilution. Compound dilutions were added directly into white, low-volume assay plates (Perkin Elmer Proxiplate 384 Plus#6008280) using a Labcyte Echo in conjunction with Labcyte Access and Thermo Multidrop CombinL robotics. Compounds were then suspended in eight microliters (μL) of assay buffer (20 mM Sodium Phosphate, pH 6.0, 50 mM NaCl, 1 mM Ethylenediaminetetraacetic acid disodium salt dihydrate, 0.01% Triton X-100, 1 mM DL-Dithiothreitol) containing His-tagged bromodomain, Europium-conjugated anti-His antibody (Invitrogen PV5596) and Alexa-647-conjugated probe.
(§3) The final concentration of 1× assay mixture contained 2% DMSO, 12 nM His tagged BRD4 (BDI_K57-E168) and 100 nM probe or 4 nM His tagged BRD4 (BDII_E352-M457) and 30 nM probe, and 1 nM Europium-conjugated anti-His-tag antibody, and compound concentrations in the range of: 49.02 μM-0.61 nM or 0.98 μM-0.15 nM.
(§4) After a one-hour equilibration at room temperature, TR-FRET ratios were determined using an Envision multilabel plate reader (Ex 340, Em 495/520).
(§5) TR-FRET data were normalized to the means of 24 no-compound controls (“high”) and 8 controls containing 1 μM un-labeled probe (“low”). Percent inhibition was plotted as a function of compound concentration and the data were fit with the 4 parameter logistic equation to obtain IC50s. Inhibition constants (Ki) were calculated from the IC50s, probe Kd and probe concentration.

[2] = target: BRD4 (BDI_K57-E168) (Homo sapiens (Human), UniProt O60885); experiment: TR-FRET bromodomain binding assay, BRD4 BDI; details: mean Ki, calculated from IC50, probe Kd and probe concentration
Method: as §1, §2, §3, §4, §5

| SMILES | Ki [1] | Ki [2] |
| --- | --- | --- |
| CCNC(=O)c1cc2c(-c3cc(C(C)(O)CC(C)C)cnc3Oc3c(C)cccc3C)cn(C)c(=O)c2[nH]1 (stereo not drawn) [Example 18, 4-[2-(2,6-dimethylphenoxy)-5-(2-hydroxy-4-methylpentan-2-yl)pyridin-3-yl]-N-ethyl-6-methyl-7-oxo-6,7-dihydro-1H-pyrrolo[2,3-c]pyridine-2-carboxamide] | 3.8 nM | 449 nM |
| CCNC(=O)c1cc2c(-c3cc(C(C)(O)C(C)C)cnc3Oc3c(C)cccc3C)cn(C)c(=O)c2[nH]1 (stereo not drawn) [Example 19, 4-[2-(2,6-dimethylphenoxy)-5-(2-hydroxy-3-methylbutan-2-yl)pyridin-3-yl]-N-ethyl-6-methyl-7-oxo-6,7-dihydro-1H-pyrrolo[2,3-c]pyridine-2-carboxamide] | 4 nM | 196 nM |
| CCNC(=O)c1cc2c(-c3cc(C(C)(O)C(C)CC)cnc3Oc3c(C)cccc3C)cn(C)c(=O)c2[nH]1 (stereo not drawn) [Example 20, 4-[2-(2,6-dimethylphenoxy)-5-(2-hydroxy-3-methylpentan-2-yl)pyridin-3-yl]-N-ethyl-6-methyl-7-oxo-6,7-dihydro-1H-pyrrolo[2,3-c]pyridine-2-carboxamide] | 3.1 nM | 363 nM |
| CCNC(=O)c1cc2c(-c3cc(C(C)(O)CCc4ccccc4)cnc3Oc3c(C)cccc3C)cn(C)c(=O)c2[nH]1 (stereo not drawn) [Example 21, 4-[2-(2,6-dimethylphenoxy)-5-(2-hydroxy-4-phenylbutan-2-yl)pyridin-3-yl]-N-ethyl-6-methyl-7-oxo-6,7-dihydro-1H-pyrrolo[2,3-c]pyridine-2-carboxamide] | 1.5 nM | 521 nM |
| CCNC(=O)c1cc2c(-c3cc(C(C)(O)Cc4ccc(F)cc4)cnc3Oc3c(C)cccc3C)cn(C)c(=O)c2[nH]1 (stereo not drawn) [Example 22, 4-{2-(2,6-dimethylphenoxy)-5-[1-(4-fluorophenyl)-2-hydroxypropan-2-yl]pyridin-3-yl}-N-ethyl-6-methyl-7-oxo-6,7-dihydro-1H-pyrrolo[2,3-c]pyridine-2-carboxamide] | 10.5 nM | 2500 nM |
| CCNC(=O)c1cc2c(-c3cc(C(O)(c4ccc(F)cc4)C4CC4)cnc3Oc3c(C)cccc3C)cn(C)c(=O)c2[nH]1 (stereo not drawn) [Example 23, 4-{5-[cyclopropyl (4-fluorophenyl)hydroxymethyl]-2-(2,6-dimethylphenoxy)pyridin-3-yl}-N-ethyl-6-methyl-7-oxo-6,7-dihydro-1H-pyrrolo[2,3-c]pyridine-2-carboxamide] | 3.2 nM | 701 nM |
| CCNC(=O)c1cc2c(-c3cc(C(O)(C4CCCC4)C4CC4)cnc3Oc3c(C)cccc3C)cn(C)c(=O)c2[nH]1 (stereo not drawn) [Example 24, 4-{5-[cyclopentyl(cyclopropyl)hydroxymethyl]-2-(2,6-dimethylphenoxy)pyridin-3-yl}-N-ethyl-6-methyl-7-oxo-6,7-dihydro-1H-pyrrolo[2,3-c]pyridine-2-carboxamide] | 1.7 nM | 79 nM |
| CCNC(=O)c1cc2c(-c3cc(C(O)(C4CC4)C4CC4)cnc3Oc3c(C)cccc3C)cn(C)c(=O)c2[nH]1 [Example 25, 4-{5-[dicyclopropyl(hydroxy)methyl]-2-(2,6-dimethylphenoxy)pyridin-3-yl}-N-ethyl-6-methyl-7-oxo-6,7-dihydro-1H-pyrrolo[2,3-c]pyridine-2-carboxamide] | 3 nM | 171 nM |
| CCNC(=O)c1cc2c(-c3cc(C(O)(C(C)C)C4CC4)cnc3Oc3c(C)cccc3C)cn(C)c(=O)c2[nH]1 (stereo not drawn) [Example 26, 4-[5-(1-cyclopropyl-1-hydroxy-2-methylpropyl)-2-(2,6-dimethylphenoxy)pyridin-3-yl]-N-ethyl-6-methyl-7-oxo-6,7-dihydro-1H-pyrrolo[2,3-c]pyridine-2-carboxamide] | 1.5 nM | 15 nM |
| CCNC(=O)c1cc2c(-c3cc(C(O)(C(C)CC)C4CC4)cnc3Oc3c(C)cccc3C)cn(C)c(=O)c2[nH]1 (stereo not drawn) [Example 27, 4-[5-(1-cyclopropyl-1-hydroxy-2-methylbutyl)-2-(2,6-dimethylphenoxy)pyridin-3-yl]-N-ethyl-6-methyl-7-oxo-6,7-dihydro-1H-pyrrolo[2,3-c]pyridine-2-carboxamide] | 1.8 nM | 44 nM |
| CCNC(=O)c1cc2c(-c3cc(C(C)(C)O)ccc3Oc3c(C)cccc3C(F)(F)F)cn(C)c(=O)c2[nH]1 [Example 28, N-ethyl-4-{5-(2-hydroxypropan-2-yl)-2-[2-methyl-6-(trifluoromethyl)phenoxy]phenyl}-6-methyl-7-oxo-6,7-dihydro-1H-pyrrolo[2,3-c]pyridine-2-carboxamide] | 5.4 nM | 1180 nM |
| CCNC(=O)c1cc2c(-c3cc(C(C)(C)O)cnc3Oc3c(C)cccc3Cl)cn(C)c(=O)c2[nH]1 [Example 29, 4-[2-(2-chloro-6-methylphenoxy)-5-(2-hydroxypropan-2-yl)pyridin-3-yl]-N-ethyl-6-methyl-7-oxo-6,7-dihydro-1H-pyrrolo[2,3-c]pyridine-2-carboxamide] | 1.3 nM | 594 nM |
| CCNC(=O)c1cc2c(-c3cc(C(C)(C)O)ccc3Oc3c(C)cccc3Cl)cn(C)c(=O)c2[nH]1 [Example 30, 4-[2-(2-chloro-6-methylphenoxy)-5-(2-hydroxypropan-2-yl)phenyl]-N-ethyl-6-methyl-7-oxo-6,7-dihydro-1H-pyrrolo[2,3-c]pyridine-2-carboxamide] | 1.9 nM | 279 nM |
| Cc1cccc(Cl)c1Oc1ccc(C(C)(C)O)cc1-c1cn(C)c(=O)c2[nH]c(C(=O)NC(C)(C)C)cc12 [Example 31, N-tert-butyl-4-[2-(2-chloro-6-methylphenoxy)-5-(2-hydroxypropan-2-yl)phenyl]-6-methyl-7-oxo-6,7-dihydro-1H-pyrrolo[2,3-c]pyridine-2-carboxamide] | 3.3 nM | 260 nM |
| Cn1cc(-c2cc(C(C)(C)O)ccc2-c2ccc(F)cc2F)c2cc(C(=O)NC(C)(C)C)[nH]c2c1=O [Example 33, N-tert-butyl-4-[2′,4′-difluoro-4-(2-hydroxypropan-2-yl)[1,1′-biphenyl]-2-yl]-6-methyl-7-oxo-6,7-dihydro-1H-pyrrolo[2,3-c]pyridine-2-carboxamide] | 6.4 nM | 921 nM |
| Cc1cccc(C)c1Oc1ncc(C(C)(C)O)cc1-c1cn(C)c(=O)c2[nH]c(C(=O)NC3(C)CC3(F)F)cc12 (stereo not drawn) [Example 34, N-(2,2-difluoro-1-methylcyclopropyl)-4-[2-(2,6-dimethylphenoxy)-5-(2-hydroxypropan-2-yl)pyridin-3-yl]-6-methyl-7-oxo-6,7-dihydro-1H-pyrrolo[2,3-c]pyridine-2-carboxamide] | 5.1 nM | 729 nM |
| Cc1cc(F)cc(C)c1Oc1ccc(C(C)(C)O)cc1-c1cn(C)c(=O)c2[nH]c(C(=O)NC(C)(C)C)cc12 [Example 36, N-tert-butyl-4-[2-(4-fluoro-2,6-dimethylphenoxy)-5-(2-hydroxypropan-2-yl)phenyl]-6-methyl-7-oxo-6,7-dihydro-1H-pyrrolo[2,3-c]pyridine-2-carboxamide] | 3.4 nM | 579 nM |
| Cc1cccc(Cl)c1Oc1ncc(C(C)(C)O)cc1-c1cn(C)c(=O)c2[nH]c(C(=O)NC(C)(C)C)cc12 [Example 37, N-tert-butyl-4-[2-(2-chloro-6-methylphenoxy)-5-(2-hydroxypropan-2-yl)pyridin-3-yl]-6-methyl-7-oxo-6,7-dihydro-1H-pyrrolo[2,3-c]pyridine-2-carboxamide] | 3.7 nM | 195 nM |
| Cc1cccc(Cl)c1Oc1ncc(C(C)(C)O)cc1-c1cn(C)c(=O)c2[nH]c(C(=O)NC(C)(C)C(F)(F)F)cc12 [Example 38, 4-[2-(2-chloro-6-methylphenoxy)-5-(2-hydroxypropan-2-yl)pyridin-3-yl]-6-methyl-7-oxo-N-(1,1,1-trifluoro-2-methylpropan-2-yl)-6,7-dihydro-1H-pyrrolo[2,3-c]pyridine-2-carboxamide] | 5.7 nM | 241 nM |
| Cc1cccc(Cl)c1Oc1ncc(C(C)(C)O)cc1-c1cn(C)c(=O)c2[nH]c(C(=O)NC3(C)CC3(F)F)cc12 (stereo not drawn) [Example 39, 4-[2-(2-chloro-6-methylphenoxy)-5-(2-hydroxypropan-2-yl)pyridin-3-yl]-N-(2,2-difluoro-1-methylcyclopropyl)-6-methyl-7-oxo-6,7-dihydro-1H-pyrrolo[2,3-c]pyridine-2-carboxamide] | 11.3 nM | 640 nM |
| CCNC(=O)c1cc2c(-c3cc(C(C)(C)O)ccc3Oc3c(C)cc(SC)cc3C)cn(C)c(=O)c2[nH]1 [Example 40, 4-{2-[2,6-dimethyl-4-(methylsulfanyl)phenoxy]-5-(2-hydroxypropan-2-yl)phenyl}-N-ethyl-6-methyl-7-oxo-6,7-dihydro-1H-pyrrolo[2,3-c]pyridine-2-carboxamide] | 2.1 nM | 773 nM |
